What all share (format): in vivo
Series [1] has as its system 3rd-instar larvae of Ostrinia furnacalis Guenee. Nature of the series: Synergism screening (Bliss) of I-72 + ecdysteroid and juvenile hormone insecticides, Example 51, Table 51. To be noted: for mortality at 0.04 µg/mL / mortality at 2 µg/mL / mortality at 100 µg/mL / mortality at 0.1 µg/mL / mortality at 40 µg/mL: Ostrinia furnacalis, 72 h, read-out: Measured mortality rate; for Measured mortality rate: single pesticide, 72 hours. The method, then:
Test target: 3rd-instar larvae of Ostrinia furnacalis Guenee.
(§1) Preparation of the pesticide solution: according to different test requirements, the test samples were accurately weighed respectively with an electronic analytical balance. The technical pesticides were dissolved in acetone, and then diluted with 0.1% Tween 80 water into a series of pesticide solutions with a certain concentration gradient according to the experimental design dosage.
Experimental method: first, tender corn stems were selected and dipped in the prepared pesticide solution for 10 s in the order from low dosage to high dosage according to the experimental design. After natural air-drying in the shade, they were placed in a 9-cm-diameter Petri dish with filter paper, and uniform and healthy test insects were introduced, with 10 insects for each treatment and 3 replicates for each treatment. In addition, a blank control (CK) was set up.
(§2) The treated test materials were placed in an observation room, and the temperature, humidity and illumination of the observation room could be adjusted as needed. The number of dead and alive insects was investigated 72 hours later, and the corrected mortality rate was calculated using the Abbott's formula.
(§3) The synergism of the mixture was evaluated by adopting the Bliss method, as in Example 5.

The test system of series [2] is Sitobion miscanthi (Fabricius). Description: whole plant or invertebrate. The settings on record: for Measured mortality rate: single pesticide, 48 hours. As to the method: Test target: Sitobion miscanthi (Fabricius).
as §1
Experimental method: first, wheat seedlings with uniform and consistent Sitobion miscanthi (Fabricius) were selected, with about 30-40 insects on each pot of wheat. Then, they were evenly sprayed with the pesticide solution in the order from low dosage to high dosage according to the experimental design, with 2.5 mL for each pot and 3 replicates for each treatment. In addition, a blank control CK was set up.
The treated test materials were placed in an observation room, and the temperature, humidity and illumination of the observation room could be adjusted as needed. The number of dead and alive insects was investigated 48 hours later, and the corrected mortality rate was calculated using the Abbott's formula.
(§4) The synergism of the mixture was evaluated by the Bliss method. According to the concept of independent joint action he proposed, Bliss believes that the theoretical mortality rate P when insecticides are used in combination can be calculated by the following formula: […]
(§5) Pm is the measured mortality rate (%) of the target when the first active ingredient is at a concentration of m; and Pn is the measured mortality rate (%) of the target when the second active ingredient is used at a concentration of n.
(§6) If the actual mortality rate of the target after the two active ingredients are mixed at a certain concentration is greater than theoretical mortality rate P, it is determined that the two active ingredients have a synergistic effect when used in combination at the set concentration, and otherwise, they have an antagonistic effect.

Series [3] concerns 3rd-instar larvae of Pyrausta nubilalis Hubern. Description: Synergism assay (Bliss) of I-72 + cartap, monosultap, bisultap, Example 5, Table 5. To be noted: 72 h. The method, then: Test subject: 3rd-instar larvae of Pyrausta nubilalis Hubern, a sensitive strain reared indoors.
Test conditions: temperature: 24-26° C., humidity: RH 60%, and illumination: L:D=14:10
Preparation method: the test pesticides were accurately weighed respectively with an electronic analytical balance. After the two technical materials were respectively added into an appropriate amount of solvent and completely dissolved, the stock solution of the required concentration was prepared with water containing 0.1% Tween 80. The stock solutions of the two active ingredients were mixed in a certain ratio to prepare a mixed solution, which was then diluted respectively into a series of pesticide solutions with a certain concentration gradient according to the experimental design dosage.
Experimental method: the artificial diet-pesticide film method was adopted. A standard clean 24-well culture plate was selected. 1 ml of artificial diet was added to each well. After the diet cooled and solidified, a quantitative amount of a pesticide solution was added to the culture plate using a continuous sampler, and then it was air-dried naturally in the shade. The standard test insects were introduced, with 1 insect in each well, a total of 48 insects. The treated test insects were placed in an observation room under certain conditions. The reaction of the test insects was regularly observed, and the number of dead and live insects was investigated 72 h later.
The evaluation method adopted was the Bliss method. This method is applicable to the qualitative screening of insecticidal compositions. According to the concept of independent joint action he proposed, Bliss believes that the theoretical mortality rate P when insecticides are used in combination can be calculated by the following formula: […]
Pm is the mortality rate (%) of the target when the first active ingredient is at a concentration of m; and Pn is the mortality rate (%) of the target when the second active ingredient is at a concentration of n.
as §6

For series [4], the system named is 2nd-instar larvae of Plutella xylostella. Description: Synergism screening (Bliss) of I-72 + insect attractants and insecticides, Example 49, Table 49. To be noted: for Measured mortality rate: single pesticide, 72 hours. As to the method: (§7) Test target: 2nd-instar larvae of Plutella xylostella.
as §1
Experimental method: first, cabbage leaves were selected and dipped in the prepared pesticide solution for 10 s in the order from low dosage to high dosage according to the experimental design. After natural air-drying in the shade, they were placed in a 9-cm-diameter Petri dish with filter paper, and uniform and healthy test insects were introduced, with 10 insects for each treatment and 3 replicates for each treatment. In addition, a blank control CK was set up.
as §2, §3

The test system is the same in series [5]. Description: whole plant or invertebrate. To be noted: for Measured mortality rate: single pesticide, 72 hours; for mortality at 0.025 µg/mL / mortality at 0.5 µg/mL / mortality at 10 µg/mL / mortality at 0.01 µg/mL / mortality at 25 µg/mL: Plutella xylostella, 72 h, read-out: Measured mortality rate. As to the method: as §7, §1
Experimental method: first, cabbage leaves were selected and dipped in the prepared pesticide solution for 10 s in the order from low dosage to high dosage according to the experimental design. After natural air-drying in the shade, they were placed in a 9-cm-diameter Petri dish with filter paper, and uniform and healthy test insects were introduced, with 10 insects for each treatment and 3 replicates for each treatment. In addition, a blank control (CK) was set up.
as §2, §4, §5, §6

The mark [6] stands for this setting: Sitobion miscanthi, in Triticum aestivum, 48 h, read-out: Measured mortality rate.
The mark [7] stands for this setting: Plutella xylostella, 72 h, read-out: Measured mortality rate.
Setting [8] is: Ostrinia nubilalis, read-out: Mortality rate (%).

Take `COC(C)(C)CCC[C@H](C)C/C=C/C(C)=C/C(=O)OC(C)C` (racemic) [Methoprene]: in series [1], the mortality at 0.04 µg/mL worked out at 10%, the mortality at 2 µg/mL came out at 17.9% and the mortality at 100 µg/mL is 25%.

On to `CC(C)(C)[C@@H](O)[C@@H](Cc1ccc(Cl)cc1)n1cncn1` (racemic) [Paclobutrazol], for which, in series [2] (setting [6]), the mortality at 1 µg/mL amounted to 6.8%, the mortality at 10 µg/mL stood at 7.8% and the mortality at 100 µg/mL was found to be 11.3%.

In the case of `CN(C)C(CSS(=O)(=O)[O-])CSS(=O)(=O)[O-].[Na+].[Na+]` [Bisultap, bisultap], the “Mortality rate (%)” value in series [3] (single agent 0.1 mg/L) came to 0%; in series [3] (single agent 1 mg/L) it was 4.17%; in series [3] (single agent 5 mg/L) it was 10.42%; in series [3] (single agent 10 mg/L) it was 22.92%.

`CC(C)[C@H](C)[C@@H](O)[C@H](O)[C@@H](C)[C@H]1CC[C@H]2[C@@H]3COC(=O)[C@H]4C[C@H](O)[C@H](O)C[C@]4(C)[C@H]3CC[C@]12C` [Brassinolide]: the Measured mortality rate was 6.7% in series [2] (0.5 mg/L), 8.8% in series [2] (10 mg/L) and 12.6% in series [2] (200 mg/L).

In the case of `CC12CCC(CC1=O)C2(C)C` (stereo not drawn) [Camphor], in series [4] (setting [7]), the mortality at 0.002 µg/mL is 7.4%, the mortality at 0.1 µg/mL turned out to be 9.7% and the mortality at 5 µg/mL was found to be 13.8%.

In the case of `CN(C)C(CSC(N)=O)CSC(N)=O` [Cartap, cartap], in series [3] (setting [8]), the mortality at 0.1 µg/mL is 2.08%, the mortality at 1 µg/mL worked out at 10.4%, the mortality at 5 µg/mL is 20.8% and the mortality at 10 µg/mL turned out to be 43.8%.

On to `O=C(NC(=O)c1ccccc1Cl)Nc1ccc(Cl)cc1` [Chlorbenzuron], for which the Measured mortality rate in series [5] (0.01 mg/L) is listed as 6.5%; in series [5] (0.5 mg/L), 14.8%; in series [5] (25 mg/L), 25.8%.

Turning to `O=C(NC(=O)c1c(F)cccc1F)Nc1cc(Cl)c(Oc2ncc(C(F)(F)F)cc2Cl)c(Cl)c1` [Chlorfluazuron], in series [5], the mortality at 0.025 µg/mL came out at 3.4%, the mortality at 0.5 µg/mL came out at 10.3% and the mortality at 10 µg/mL is 24.1%.

On to `Nc1nc(N)nc(NC2CC2)n1` [Cyromazine], for which, in series [1], the mortality at 0.1 µg/mL turned out to be 6.9%, the mortality at 2 µg/mL was 10.7% and the mortality at 40 µg/mL came out at 21.2%.

On to `CC(C)c1cc(Oc2ccccc2)cc(C(C)C)c1NC(=S)NC(C)(C)C` [Diafenthiuron], for which, in series [5], the mortality at 0.025 µg/mL is 6.3%, the mortality at 0.5 µg/mL stood at 13.3% and the mortality at 10 µg/mL was determined as 21.4%.

For the molecule `O=C(NC(=O)c1c(F)cccc1F)Nc1ccc(Cl)cc1` [Diflubenzuron], in series [5], the mortality at 0.01 µg/mL turned out to be 11.1%, the mortality at 0.5 µg/mL is 12.9% and the mortality at 25 µg/mL was 31%.

Regarding `O=P(O)(O)CCCl` [Ethephon], in series [2] (setting [6]), the mortality at 0.2 µg/mL was 7%, the mortality at 10 µg/mL was found to be 8.8% and the mortality at 500 µg/mL was determined as 15%.

`N#Cc1nn(-c2c(Cl)cc(C(F)(F)F)cc2Cl)c(N)c1[S+]([O-])C(F)(F)F` (stereo not drawn) [Fipronil]: in series [4] (setting [7]), the mortality at 0.01 µg/mL was 6.7%, the mortality at 0.1 µg/mL came to 16.7% and the mortality at 1 µg/mL was found to be 27.6%.

On to `O=C(NC(=O)c1c(F)cccc1F)Nc1ccc(Oc2ccc(C(F)(F)F)cc2Cl)cc1F` [Flufenoxuron], for which, in series [5], the mortality at 0.01 µg/mL is 9.7%, the mortality at 0.5 µg/mL was found to be 10.7% and the mortality at 25 µg/mL was found to be 27.6%.

For the molecule `CON=CNC(=O)c1ccc(C2=NOC(c3cc(Cl)cc(Cl)c3)(C(F)(F)F)C2)cc1C` (stereo not drawn) [Fluxametamide], the Measured mortality rate came out at 6.9% in series [4] (0.01 mg/L), 48.4% in series [4] (0.1 mg/L) and 75.9% in series [4] (1 mg/L).

Turning to `Cc1cc(C)cc(C(=O)N(NC(=O)c2ccc3c(c2C)OC(C)C3)C(C)(C)C)c1` (stereo not drawn) [Fufenozide], the Measured mortality rate in series [1] (0.1 mg/L) is recorded as 9.4%; in series [1] (2 mg/L), 15.4%; in series [1] (40 mg/L), 41.9%.

On to `O=C(NC(=O)c1c(F)cccc1F)Nc1cc(Cl)c(OC(F)(F)C(F)F)c(Cl)c1` [Hexaflumuron], for which, in series [5], the mortality at 0.025 µg/mL was 6.7%, the mortality at 0.5 µg/mL was 13.8% and the mortality at 10 µg/mL stood at 22.6%.

`CCN1OCC(NC(=O)c2ccc(C3=NOC(c4cc(Cl)c(F)c(Cl)c4)(C(F)(F)F)C3)cc2C)C1=O` (stereo not drawn) [Isocycloseram]: the figures for the Measured mortality rate in series [4] (0.01 mg/L), in series [4] (0.1 mg/L) and in series [4] (1 mg/L) were 17.9%, 71.9% and 80.0%, respectively.

`O=C(NC(=O)c1c(F)cccc1F)Nc1cc(Cl)c(OC(F)(F)C(F)C(F)(F)F)cc1Cl` (stereo not drawn) [Lufenuron]: in series [5], the mortality at 0.025 µg/mL was 7.4%, the mortality at 0.5 µg/mL stood at 12.5% and the mortality at 10 µg/mL turned out to be 20.7%.

For the molecule `COc1cccc(C(=O)NN(C(=O)c2cc(C)cc(C)c2)C(C)(C)C)c1C` [Methoxyfenozide], in series [1], the mortality at 0.1 µg/mL amounted to 11.1%, the mortality at 2 µg/mL was determined as 18.8% and the mortality at 40 µg/mL is 50%.

On to `CN(C)C(CSS(=O)(=O)[O-])CSS(=O)(=O)O.[Na+]` [Monosultap, monosultap], for which the “Mortality rate (%)” value amounted to 0% in series [3] (single agent 0.1 mg/L), 6.25% in series [3] (single agent 1 mg/L), 18.75% in series [3] (single agent 5 mg/L) and 29.17% in series [3] (single agent 10 mg/L).

`CCCCCCCC/C=C\CCCCCCCCCCCCC` [Muscalure]: the results for the Measured mortality rate in series [4] (0.002 mg/L), in series [4] (0.1 mg/L) and in series [4] (5 mg/L) were 3.1%, 10.0% and 20.7%, respectively.

In the case of `FC(F)(F)c1ccc(OCCCOc2c(Cl)cc(OCC=C(Cl)Cl)cc2Cl)nc1` [Pyridalyl], in series [4] (setting [7]), the mortality at 0.005 µg/mL was determined as 8%, the mortality at 0.1 µg/mL was determined as 12.9% and the mortality at 2 µg/mL came to 24.1%.

On to `CC(COc1ccc(Oc2ccccc2)cc1)Oc1ccccn1` (stereo not drawn) [Pyriproxyfen], for which, in series [1], the mortality at 0.04 µg/mL was 7.1%, the mortality at 2 µg/mL is 9.7% and the mortality at 100 µg/mL turned out to be 16.1%.

As for `CCc1ccc(C(=O)NN(C(=O)c2cc(C)cc(C)c2)C(C)(C)C)cc1` [Tebufenozide], in series [1], the mortality at 0.1 µg/mL is 10.3%, the mortality at 2 µg/mL is 17.2% and the mortality at 40 µg/mL worked out at 46.4%.

As for `O=C(NC(=O)c1ccccc1Cl)Nc1ccc(OC(F)(F)F)cc1` [Triflumuron], in series [5], the mortality at 0.025 µg/mL was 6.9%, the mortality at 0.5 µg/mL worked out at 13.8% and the mortality at 10 µg/mL turned out to be 17.2%.
